# Assay results: patent publication US12433881B2, “Nicotine tablet” (Fertin Pharma A/S, priority 2017, dated 2025)
# Conditions: nicotine concentration increased from 100 microgram/mL to 14,000 microgram/mL
smiles,measurement,value
CN1CCCC1c1cccnc1 (stereo not shown) [nicotine],change of permeability of nicotine across the buccal mucosa,decrease of about a factor of two
